Assays:
[1] = system: bone marrow cells; test: cell cycle phase analysis of bone marrow cells by FACS with propidium iodide staining; assay type: in vivo, mouse; details: bone marrow cells from 5FU treated mice, vehicle 11.2%, FIG. 8B
Description: (§1) As an example of application for development of anti-proliferative drugs, heterozygous individuals of the transgenic mouse line according to the invention were treated as follows: a first group was treated with 150 ug/kg 5-fluorouracil (5FU), a well-known chemotherapeutic agent, while another group was treated with saline as control (vehicle) for 2 and 5 days.
Cells were fixed with methanol acetone 4:1, stained with 0.1 mg/ml propidium iodide, a DNA fluorescent marker, and then subjected to FACS analysis.

[2] = system: bone marrow cells; test: luciferase expression (RLU per microgram protein) in bone marrow cells of treated transgenic mice; assay type: in vivo, mouse; details: 5 day 5FU treatment, FIG. 8A
Description: To assess the expression of luciferase in proliferating progenitor cells, bone marrow cells, that are highly enriched in hematopoietic precursors, were collected by flushing the femurs with culture medium and enzyme activity was analyzed in protein extracts (Ciana et al 2001), as shown in the graph in FIG. 3A.
as §1

[3] = system: cell proliferation (luciferase reporter under CYCB2 promoter) in tissues; test: luciferase activity in tissue protein extracts of treated CYCB2-luciferase transgenic mice; assay type: in vivo, mouse; details: 150 ug/kg 5FU, 2 and 5 days, all tissues analysed, versus saline vehicle; FIG. 7
Description: For this purpose, organs were homogenized in lysis buffer and lysates were subjected to three cycles of freezing and thawing. Proteins were separated from DNA and lysosomes by centrifugation (13000×g for 30 min). After determining the protein concentration of the extract, the biochemical assay of luciferase activity was carried out by measuring luminescence emission with a luminometer. The relative luminescence units (RLU) determined during a measurement of 10 seconds were then expressed on the Y axis as RLU values per microgram protein. The results according to the graph in FIG. 2C indicate that, in the adult animal, light emission is restricted to organs characterized by basal homeostatic proliferation such as spleen, bone marrow, femur and sternum, or sites of active tissue remodeling in the mouse, such as joints of the feet, jaw, etc.
as §1
Mice were sacrificed and luciferase activity was evaluated in tissue protein extracts, as reported in the graph in FIG. 7.

[4] = system: skin of transgenic mouse (luciferase reporter under CYCB2 promoter); test: skin light emission imaging after cutaneous application of carcinogen to transgenic mouse; details: 0.24% DMBA solution in acetone on skin, day 7 relative to day 0; FIG. 9
Description: To evaluate this application, the skin of a transgenic mouse according to the invention was treated with DMBA, a carcinogen, and the stimulation of light emission was measured for the carcinogen-treated side compared to the side treated with vehicle alone.
In particular, a 0.24% DMBA solution in acetone was applied to the skin of transgenic individuals according to the invention. One week later (day 7 relative to day 0) the amount of luciferase produced was detected by measuring the light emission produced by the skin of the animals.

Compound | S phase cells [1] [%] | luciferase expression in bone marrow cells [2] | luciferase activity in tissue protein extracts [3] | induction of luciferase activity (light emission) versus region treated with vehicle alone [4] [fold]
O=c1[nH]cc(F)c(=O)[nH]1 [5FU, 5-fluorouracil] | 1.97 | reduced luciferase expression | Reduced luciferase activity, until levels that were undetectable | 
Cc1c2ccccc2c(C)c2c1ccc1ccccc12 [DMBA, 7,12-dimethylbenz(a)anthracene] |  |  |  | 12.5
